Measurements from patent US10639371B2, “Thermoresponsive bioconjugates and their controlled delivery of cargo” (University of Delaware, priority 2015, dated 2020).
Where no end group is shown, it is not given here.

Columns and labels:
[1] = tested on: TNF-α production from RAW264.7 macrophages; experiment: TNF-α ELISA, RAW264.7 macrophages (inflammation response); format: cell-based
Procedure: Blank PBS was used as a negative control and lipopolysaccharide (LPS, 50 ng/mL) was used as a positive control; and (B) TNF-α production from RAW264.7 macrophages, treated with ELP-CLP nanoparticles at various concentrations. Blank PBS was used as a negative control and lipopolysaccharide (LPS, 50 ng/mL) was used as a positive control.
(B) Viability of NIH-3T3 fibroblasts (8,000 cells/cm^2 in DMEM/10% FBS); live/dead overlay shown. (C) TNF-α production from RAW264.7 murine macrophage-like cell culture (15,000 cells/cm^2 in DMEM/10% FBS) in the presence of various concentrations of CLP-ELP nanoparticles.
RAW264.7 murine macrophages were purchased from American Type Culture Collection (ATCC) and were cultured in DMEM (Sigma Aldrich) supplemented with 10% heat-inactivated fetal bovine serum (MediaTech), 10 mM HEPES (GIBCO), 55 μM β-mercaptoethanol (GIBCO), and 1% antibiotic/antimycotic (GIBCO) at 37° C. with 5% CO2. […] Cell metabolism post-treatment was assayed using PrestoBlue Viability Assay (Life Technologies), which provides a fluorescence measurement of the overall reductive capability of the cells, according to the manufacturer's instructions. […] After 2 h of incubation at 37° C., the medium was collected and analyzed using a PerkinElmer VICTOR3 1420 Multilabel Plate Reader (PerkinElmer, Waltham, Mass.) at excitation/emission wavelengths of 570 nm/615 nm. […]

[2] = Dynamic light scattering (DLS) of assemblies upon heating; format: physicochemical; details: ELP alone, 1 mg/mL in water
Procedure: (A) ELP at 1 mg/mL in water; (B) ELP and CLP physical mixture at 0.5 mg/mL each in water.
The anticipated assembly of ELP-CLP nanostructures at physiologically relevant temperatures was confirmed via dynamic light scattering (DLS) (FIG. 3). In contrast to our expectations that nanoparticle formation would be triggered at near physiological temperature, however, the conjugates formed structures with hydrodynamic diameters (Dh) that ranged from approximately 50 to 200 nm at all temperatures between 4° C. and 65° C. (FIG. 3a), with a Dh of approximately 160 nm at 37° C. (FIG. 3b).
The anchoring of the ELP by the noncovalent formation of CLP triple helix, however, should offer unique and as yet unreported opportunities to reversibly modulate the transition temperatures of the ELP domain and to thus confer dual thermoresponsiveness to the conjugates. Indeed, after an initial increase in the Dh of the ELP-CLP nanoparticles with heating to 50° C. (FIG. 3), Dh begins to decrease once the sample is heated above this temperature, which is also approximately the melting temperature of the CLP (FIG. 2b). With additional heating to 80° C., the CLP unfolds completely (FIG. 2b), and the nanoparticles become fully solubilized as monomers with an average Dh of only 5.6 nm (FIG. 3b). […]

[3] = Circular dichroic spectroscopy (CD), thermal unfolding of CLP triple helix; format: physicochemical; details: first derivative of CD melting curve
Procedure: (§1) The ability of the CLP domain to form stable triple helix at physiological temperature while conjugated to the ELP was probed via circular dichroic spectroscopy (CD). The CD spectra of ELP-CLP at temperatures ranging from 5° C. to 80° C. […] Presumably, the collapse of the ELP domain at the elevated temperatures anchors the CLP and stabilizes it against unfolding, similar to our previously reported results for a polymer-conjugated CLP. The refolding of the CLP triple helix (FIGS. 2c and 2d) is likewise accelerated by the ELP anchoring of the CLP, owing to the increase in the local concentration of the CLP strands.

[4] = CD refolding of CLP triple helix after quenching from 80° C. to 5° C.; format: physicochemical
Procedure: as §1

## lipopolysaccharide [LPS]
[1]; FIG. 18C, 15,000 cells/cm^2, various concentrations
  TNF-α expression: elevated TNF-α expression
[1]; nanoparticles 50-1000 μg/mL, LPS 50 ng/mL, 8 h
  TNF-α expression: high levels of TNF-α expression

## (VPGFG)6 (VPGFGVPGFGVPGFGVPGFGVPGFGVPGFG; also: alkyne functionalization, site not given here) [ELP]
[2]
  inverse transition / aggregation upon heating: does not undergo a transition

## (GPO)4GFOGER(GPO)4GG [CLP]
[3]
  Tm (unfolding of CLP triple helix): ca. 50 °C
[4]
  rate constant of triple helix refolding reaction: 1.14×10^7 M^−2·s^−1
